# Test results published in patent publication US6159940A, “Method for modulating hemopoiesis” (Immunotech Developments Inc., priority 1999, dated 2000).
# What was measured:
# CFU-S = assay: Regeneration of the CFU-S population in bone marrow of irradiated mice (4 Gy); format: in vivo
# Excerpt: a) Scheme 1: mice received the peptide immediately after irradiation, daily. The mice were divided into groups: a control group--irradiated mice (4 Gy), and test groups--irradiated mice (4 Gy) received the peptide 1, 2, 3, and 4 times daily. Blood samples were taken four hours after the last peptide injection and on the 7th, 10th, and 16th day after the irradiation. Determined were total count of nucleated blood cells (NC) and lymphocyte percentage of them; nucleated cells and the CFU-S population in femoral bone marrow were counted on the 4th, 8th, and the 14th day.
# From each group at least five mice were killed, their bone marrow was taken out and used to prepare the cell suspension, which was injected to lethally irradiated mice. After 9 days, CFU-S was counted in irradiated (4 Gy) donors receiving the peptide by counting the colonies grown on spleen. It was noted that with intramuscular administration of the peptide the CFU-S count in irradiated mice bone marrow was steadily growing starting from the 4th day, leaving the control CFU-S far behind.
# b) According to scheme 2, the peptide injections were made starting from the 3rd day after the irradiation, at the same time of maximum depletion of the pool of mature nucleated cells and the bone marrow. The groups of mice were formed in the same way as in the previous scheme. Blood samples were taken 4 hours after the last injection i.e. on day 6, as well as on days 11, 14, 18, 21. Tables 9 and 10 present the data on karyocyte and lymphocyte counts in blood (per 1 mm^3) of mice treated according to scheme 2.
# T-cell = T-cell count in spleen, spontaneous rosette formation with sheep erythrocytes (E-FRC); format: in vivo, (CBA×C57BL)F1 mice
# Experimental: Females and male (CBA×C57BL)F1 mice, aged about 2.5 months weighing about 20 g, were irradiated with gamma-rays using a "Luch-1" apparatus. Immunological activity was assessed according to Jerne (Antibody Forming Cells count--AFC). T-cell count in spleen was determined by the method of spontaneous rosette formation with sheep erythrocytes (E-FRC). The peptide was injected intramuscularly.
# Mice were irradiated in a dose of 2 Gy, the peptide was injected in the dose of 10 μg/kg according to the following scheme (to determine T-cell count by the method of spontaneous rosette formation): 1 time--an hour after the irradiation; 2 times--an hour, and a day after irradiation; 3 times--an hour, a day, and two days after the irradiation; 4 times--an hour, a day, two days and three days after the irradiation. The intact mice recieved the peptide 3 or 4 times. The control group (2 Gy) recieved injections of physiological solution according to the same schedule. On completion of the treatment course, 10 mice from each group were immunized with sheep erythrocytes (SE) and 4-5 days later AFC counts were determined in their spleens. The rest of the mice were used to find T-cell count by the method of spontaneous rosette formation. The state of the organs of immune system (spleen and thymus) in mice with radiation immunodeficiency against the background of H-Ile-Glu-Trp-OH treatment was also listed by nucleated cell counts in thymus and spleen per mg of organ weight. AFC/mg Spleen weight is presented as an average of two experiments.
# [1] = test system: lymphocytes in guinea pigs; assay: E-rosette formation test after trypsin treatment; format: cell-based
# Excerpt: The biological action of the novel peptide was studied in guinea pigs in the conventional E-rosette formation test.
# [2] = Chronic toxicity: peritheric blood and internals, 30 days, guinea pigs; format: in vivo; settings: once daily for 30 days
# Experimental: II.1 The H-Ile-Glu-Trp-OH effect on the composition and properties of the peritheric blood, the morphological state of the internals.
# The drug was injected once daily for 30 days.
# The test animals were 20 rabbits and 40 guinea pigs.
# Effect on liver function = format: in vivo, rabbits; settings: 0.01% solution for 30 days
# Experimental: The tests were performed in 20 rabbits, who received injections of 0.01% H-Ile-Glu-Trp-OH solution for 30 days.
# nucleated blood cells = assay: Nucleated blood cells and lymphocytes in irradiated mice (4 Gy), scheme 1; format: in vivo; design: Lymphocytes (absolute) in blood: unit not given here; settings: for Karyocyte Count in Blood: scheme 1, 10 μg/kg i.m.
# Experimental: Irradiated mice (4 Gy) received intramuscular injections of the peptide in the dose of 10 μg/kg according to 2 schemes.
# a) Scheme 1: mice received the peptide immediately after irradiation, daily. […] Blood samples were taken four hours after the last peptide injection and on the 7th, 10th, and 16th day after the irradiation. Determined were total count of nucleated blood cells (NC) and lymphocyte percentage of them; nucleated cells and the CFU-S population in femoral bone marrow were counted on the 4th, 8th, and the 14th day.
substance,measurement,setting,value
H-Ile-Glu-Trp-OH,cellular composition of bone marrow,"CFU-S; scheme 1, i.m.",did not affect
same,regeneration of the CFU-S population,"CFU-S; scheme 1, i.m. (FIG. 1)",markedly stimulated regeneration of the CFU-S population
same,CFU-S (absolute) in femoral bone marrow,"CFU-S; scheme 2, 1 Time, Day 7",459 ± 26
same,CFU-S (absolute) in femoral bone marrow,"CFU-S; scheme 2, 1 Time, Day 11",858 ± 67
same,CFU-S (absolute) in femoral bone marrow,"CFU-S; scheme 2, 1 Time, Day 14",1197 ± 75
same,CFU-S (absolute) in femoral bone marrow,"CFU-S; scheme 2, 2 Time, Day 7",298 ± 27
same,CFU-S (absolute) in femoral bone marrow,"CFU-S; scheme 2, 2 Time, Day 11",846 ± 44
same,CFU-S (absolute) in femoral bone marrow,"CFU-S; scheme 2, 2 Time, Day 14",902 ± 56
same,CFU-S (absolute) in femoral bone marrow,"CFU-S; scheme 2, 3 Time, Day 7",305 ± 33
same,CFU-S (absolute) in femoral bone marrow,"CFU-S; scheme 2, 3 Time, Day 11",1077 ± 56
same,CFU-S (absolute) in femoral bone marrow,"CFU-S; scheme 2, 3 Time, Day 14",1166 ± 68
same,CFU-S (absolute) in femoral bone marrow,"CFU-S; scheme 2, 4 Time, Day 7",431 ± 48
same,CFU-S (absolute) in femoral bone marrow,"CFU-S; scheme 2, 4 Time, Day 11",1147 ± 55
same,CFU-S (absolute) in femoral bone marrow,"CFU-S; scheme 2, 4 Time, Day 14",1434 ± 89
same,"T-Cell Count, column 1","T-cell; 2 Gy, 1 Injection",34.5 ± 1.7 10^3 /mg Spleen
same,"T-Cell Count, column 1","T-cell; 2 Gy, 2 Injection",35.6 ± 1.8 10^3 /mg Spleen
same,"T-Cell Count, column 1","T-cell; 2 Gy, 3 Injection",45.3 ± 3.4 10^3 /mg Spleen
same,"T-Cell Count, column 2","T-cell; 2 Gy, 3 Injection",23.2 ± 3.7 10^3 /mg Spleen
same,"T-Cell Count, column 1","T-cell; 2 Gy, 4 Injection",48.4 ± 2.5 10^3 /mg Spleen
same,"T-Cell Count, column 2","T-cell; 2 Gy, 4 Injection",13.0 ± 0.8 10^3 /mg Spleen
same,"T-Cell Count, column 2","T-cell; intact mice, 3 Injections",12.7 ± 1.5 10^3 /mg Spleen
same,"T-Cell Count, column 2","T-cell; intact mice, 4 Injections",18.7 ± 5.8 10^3 /mg Spleen
same,in vitro activity relative to other known compounds,[1],10^3 times
same,E-rosette formation after treatment with trypsin and compound,[1]; 10^-6 mg/ml,61.4
same,E-rosette formation after treatment with trypsin and compound,[1]; 10^-7 mg/ml,63.9
same,E-rosette formation after treatment with trypsin and compound,[1]; 10^-8 mg/ml,64.8
same,E-rosette formation after treatment with trypsin and compound,[1]; 10^-9 mg/ml,60.2
same,E-rosette formation after treatment with trypsin and compound,[1]; 10^-10 mg/ml,37.5
same,E-rosette formation after treatment with trypsin and compound,[1]; 10^-11 mg/ml,40.0
same,E-rosette formation after treatment with trypsin and compound,[1]; 10^-12 mg/ml,34.3
same,pathologic changes in the body or peritheric blood,[2],did not cause any pathologic changes
same,liver function,Effect on liver function,not to have any toxic effect on the liver function
same,Survival,nucleated blood cells; scheme 1 (footnote of Table 7),100%
same,Karyocyte Count in Blood,"nucleated blood cells; 1 Time, Day 4",0.80 ± 0.5 × 10^3 /lmm^3
same,Karyocyte Count in Blood,"nucleated blood cells; 1 Time, Day 7",3.53 ± 0.5 × 10^3 /lmm^3
same,Karyocyte Count in Blood,"nucleated blood cells; 1 Time, Day 10",4.30 ± 0.3 × 10^3 /lmm^3
same,Karyocyte Count in Blood,"nucleated blood cells; 1 Time, Day 16",4.49 ± 0.8 × 10^3 /lmm^3
same,Karyocyte Count in Blood,"nucleated blood cells; 2 Times, Day 4",1.30 ± 0.2 × 10^3 /lmm^3
same,Karyocyte Count in Blood,"nucleated blood cells; 2 Times, Day 7",3.64 ± 0.6 × 10^3 /lmm^3
same,Karyocyte Count in Blood,"nucleated blood cells; 2 Times, Day 10",6.42 ± 0.7 × 10^3 /lmm^3
same,Karyocyte Count in Blood,"nucleated blood cells; 2 Times, Day 16",5.96 ± 1.0 × 10^3 /lmm^3
same,Karyocyte Count in Blood,"nucleated blood cells; 3 Times, Day 4",1.19 ± 0.1 × 10^3 /lmm^3
same,Karyocyte Count in Blood,"nucleated blood cells; 3 Times, Day 7",5.58 ± 0.7 × 10^3 /lmm^3
same,Karyocyte Count in Blood,"nucleated blood cells; 3 Times, Day 10",4.18 ± 0.8 × 10^3 /lmm^3
same,Karyocyte Count in Blood,"nucleated blood cells; 3 Times, Day 16",6.32 ± 0.7 × 10^3 /lmm^3
same,Karyocyte Count in Blood,"nucleated blood cells; 4 Times, Day 4",1.64 ± 0.2 × 10^3 /lmm^3
same,Karyocyte Count in Blood,"nucleated blood cells; 4 Times, Day 7",4.14 ± 0.8 × 10^3 /lmm^3
same,Karyocyte Count in Blood,"nucleated blood cells; 4 Times, Day 10",4.90 ± 0.7 × 10^3 /lmm^3
same,Karyocyte Count in Blood,"nucleated blood cells; 4 Times, Day 16",7.32 ± 1.0 × 10^3 /lmm^3
same,Lymphocytes (absolute) in blood,"nucleated blood cells; scheme 1, 1 Time, Day 4",232
same,"Lymphocytes, % in blood","nucleated blood cells; scheme 1, 1 Time, Day 4",29.0 ± 2.5%
same,Lymphocytes (absolute) in blood,"nucleated blood cells; scheme 1, 1 Time, Day 7",1365
same,"Lymphocytes, % in blood","nucleated blood cells; scheme 1, 1 Time, Day 7",38.8 ± 3.1%
same,Lymphocytes (absolute) in blood,"nucleated blood cells; scheme 1, 1 Time, Day 10",1118
same,"Lymphocytes, % in blood","nucleated blood cells; scheme 1, 1 Time, Day 10",26.3 ± 2.9%
same,Lymphocytes (absolute) in blood,"nucleated blood cells; scheme 1, 1 Time, Day 16",2412
same,"Lymphocytes, % in blood","nucleated blood cells; scheme 1, 1 Time, Day 16",53.6 ± 6.0%
same,Lymphocytes (absolute) in blood,"nucleated blood cells; scheme 1, 2 Times, Day 4",468
same,"Lymphocytes, % in blood","nucleated blood cells; scheme 1, 2 Times, Day 4",36.0 ± 1.7%
same,Lymphocytes (absolute) in blood,"nucleated blood cells; scheme 1, 2 Times, Day 7",1260
same,"Lymphocytes, % in blood","nucleated blood cells; scheme 1, 2 Times, Day 7",34.8 ± 2.1%
same,Lymphocytes (absolute) in blood,"nucleated blood cells; scheme 1, 2 Times, Day 10",1664
same,"Lymphocytes, % in blood","nucleated blood cells; scheme 1, 2 Times, Day 10",25.5 ± 2.7%
same,Lymphocytes (absolute) in blood,"nucleated blood cells; scheme 1, 2 Times, Day 16",2682
same,"Lymphocytes, % in blood","nucleated blood cells; scheme 1, 2 Times, Day 16",44.8 ± 6.2%
same,Lymphocytes (absolute) in blood,"nucleated blood cells; scheme 1, 3 Times, Day 4",432
same,"Lymphocytes, % in blood","nucleated blood cells; scheme 1, 3 Times, Day 4",36.0 ± 1.3%
same,Lymphocytes (absolute) in blood,"nucleated blood cells; scheme 1, 3 Times, Day 7",1512
same,"Lymphocytes, % in blood","nucleated blood cells; scheme 1, 3 Times, Day 7",27.1 ± 1.9%
same,Lymphocytes (absolute) in blood,"nucleated blood cells; scheme 1, 3 Times, Day 10",1233
same,"Lymphocytes, % in blood","nucleated blood cells; scheme 1, 3 Times, Day 10",29.5 ± 3.6%
same,Lymphocytes (absolute) in blood,"nucleated blood cells; scheme 1, 3 Times, Day 16",2853
same,"Lymphocytes, % in blood","nucleated blood cells; scheme 1, 3 Times, Day 16",44.8 ± 4.80%
same,Lymphocytes (absolute) in blood,"nucleated blood cells; scheme 1, 4 Times, Day 4",639
same,"Lymphocytes, % in blood","nucleated blood cells; scheme 1, 4 Times, Day 4",39.0 ± 2.9%
same,Lymphocytes (absolute) in blood,"nucleated blood cells; scheme 1, 4 Times, Day 7",1025
same,"Lymphocytes, % in blood","nucleated blood cells; scheme 1, 4 Times, Day 7",25.6 ± 3.7%
same,Lymphocytes (absolute) in blood,"nucleated blood cells; scheme 1, 4 Times, Day 10",1475
same,"Lymphocytes, % in blood","nucleated blood cells; scheme 1, 4 Times, Day 10",30.7 ± 6.5%
same,Lymphocytes (absolute) in blood,"nucleated blood cells; scheme 1, 4 Times, Day 16",2847
same,"Lymphocytes, % in blood","nucleated blood cells; scheme 1, 4 Times, Day 16",38.5 ± 1.40%
